Assay results from patent US20060141620A1, “System and method for forming a cardiac tissue construct” (The Regents of the University of Michigan, priority 2004, published 2006).

Legend:
[1] = system: cardiac tissue constructs; experiment: Inotropic response to ionic calcium (force vs calcium concentration of the bath); format: cell-based, rat; conditions: explanted constructs, calcium reintroduced after EGTA removal
Protocol: The effect of the addition of exogenous calcium on contractility was investigated in the constructs according to the present invention. First, CM in the bath was replaced with calcium-free DMEM (Invitrogen). Known volumes of 100 mM ethylene glycol-bis(2-aminoethylether)-N,N,N′,N′-tetraacetic acid (EGTA) were then added to the bath to bind residual stores of calcium in the constructs. At each incremental addition of EGTA, twitch stimulation was applied and the force of contraction was measured. Removal of calcium was considered to be complete when the force of contraction was not detectable and no further EGTA was added. At this point, the calcium-free DMEM in the bath was aspirated and the construct was washed 3 times with fresh calcium-free DMEM. Known volumes of 100 mM calcium were then added and stimulated contraction forces were re-evaluated with each addition. This process was repeated until there was no further increase in the active force with the addition of calcium. The relationship of calcium concentration of the bath to force of contraction was then plotted.
The pCa1/2 of mammalian cardiac tissue has been reported in the range 5.9 to 7.0 (see Bers, Excitation-Contraction Coupling and Cardiac Contractile Force, Norwell: Kluwer Academic Publishers, 2002). […] The inotropic response to external calcium is an indicator of the presence of functional calcium handling machinery.

cardioids = conditions: prior publication US 2004/0132184; cited from earlier work
[2] = system: cardiac tissue constructs
Protocol: Turning now to FIG. 7, the response to epinephrine was studied in four constructs according to the present invention by adding known concentrations of epinephrine to the CM, with the constructs still attached to the force transducer. […] The concentration of epinephrine was calculated based on the typical dosage given to an adult for cardiac resuscitation. The spontaneous contractility of the constructs was recorded for a period of 5 minutes after the addition of epinephrine.

Row | SMILES | pCa1/2 [1] | response of cardioids (cardioids) | duration of rapid contraction pattern (resembling tachyarrhythmia) ([2]; 0.2 μg/ml) | effect on spontaneous contractility ([2]; 0.2 μg/ml in culture bath, four constructs)
1 | [Ca+2] [calcium] | 3.04 | positive inotropy |  | 
2 | CNC[C@H](O)c1ccc(O)c(O)c1 [epinephrine] |  | positive chronotropy | 60 to 90 s | re-initiated spontaneous contractions
